Results published in US8524717B2, “Oxidase inhibitors and their use” (Oryzon Genomics, S.A., priority 2008, dated 2013).

Legend:
MAO-A = MAO-A (Homo sapiens (Human), UniProt P21397); assay: Monoamine oxidase assay (kynuramine to 4-hydroxyquinoline fluorescence), MAO-A; type: biochemical; details: for Ki: Table 1
Experimental: (§1) Human recombinant monoamine oxidase proteins MAO-A and MAO-B were purchased from Sigma Aldrich. MOAs catalyze the oxidative deamination of 1°, 2° and 3° amines. In order to monitor MAO enzymatic activities and/or their inhibition rate by inhibitor(s) of interest, a fluorescent-based (inhibitor)-screening assay was set up. 3-(2-Aminophenyl)-3-oxopropamamine (kynuramine dihydrobromide, Sigma Aldrich), a non fluorescent compound was chosen as a substrate. Kynuramine is a non-specific substrate for both MAOs activities. While undergoing oxidative deamination by MAO activities, kynuramine is converted into 4-hydroxyquinoline (4-HQ), a resulting fluorescent product.
(§2) The monoamine oxidase activity was estimated by measuring the conversion of kynuramine into 4-hydroxyquinoline. Assays were conducted in 96-well black plates with clear bottom (Corning) in a final volume of 100 μL. The assay buffer was 100 mM HEPES, pH 7.5. Each experiment was performed in triplicate within the same experiment.
(§3) The oxidative deamination of the substrate was stopped by adding 50 μL (v/v) of NaOH 2N.
(§4) The Ki of each inhibitor was measure at Vmax/2.

MAO-B = MAO-B (Homo sapiens (Human), UniProt P27338); assay: Monoamine oxidase assay (kynuramine to 4-hydroxyquinoline fluorescence), MAO-B; type: biochemical; details: Table 1
Experimental: as §1, §2, §3, §4

[1] = molecular target: Human recombinant LSD1 protein (Homo sapiens (Human), UniProt O60341); assay: LSD1 demethylase inhibition assay (Amplex Red peroxide/peroxidase-coupled, di-methylated H3-K4 peptide); details: for ability to inhibit LSD1: preliminary assays, result in words; for LSD1 percent at fixed concentration: at 20 μM
Experimental: The demethylase activity was estimated, under aerobic conditions, by measuring the release of H2O2 produced during the catalytic process, using the Amplex® Red peroxide/peroxidase-coupled assay kit (Invitrogen).
Tranylcypromine (Biomol International) was used as a control for inhibition. Within the experiment, each concentration of inhibitor was tested in triplicate. […] The enzymatic reactions were set up in a 50 mM sodium phosphate, pH 7.4 buffer. […] A 1 μM H2O2 solution was used as a control of the kit efficiency. The conversion of the Amplex® Red reagent to resorufin due to the presence of H2O2 in the assay, was monitored by fluorescence (excitation at 540 nm, emission at 590 nm) using a microplate reader (Infinite 200, Tecan). Arbitrary units were used to measure level of H2O2 produced in the absence and/or in the presence of inhibitor.
The Ki of each inhibitor was estimated at half of the maximum activity.

Sequence of MAO-A (P21397 whole entry): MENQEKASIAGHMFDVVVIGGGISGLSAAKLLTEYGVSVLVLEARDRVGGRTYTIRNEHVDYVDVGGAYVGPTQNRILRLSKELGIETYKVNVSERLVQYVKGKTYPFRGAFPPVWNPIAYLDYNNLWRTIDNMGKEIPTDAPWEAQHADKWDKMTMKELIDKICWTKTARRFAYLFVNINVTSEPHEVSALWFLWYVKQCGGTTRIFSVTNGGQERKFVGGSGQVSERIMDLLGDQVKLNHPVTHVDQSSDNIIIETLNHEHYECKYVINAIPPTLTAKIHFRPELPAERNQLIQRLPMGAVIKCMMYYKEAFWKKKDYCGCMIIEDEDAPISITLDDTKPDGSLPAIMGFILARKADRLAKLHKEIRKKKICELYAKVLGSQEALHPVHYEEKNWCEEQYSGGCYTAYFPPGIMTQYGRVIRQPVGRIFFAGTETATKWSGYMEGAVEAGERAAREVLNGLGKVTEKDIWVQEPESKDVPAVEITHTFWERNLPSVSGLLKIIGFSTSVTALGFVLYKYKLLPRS
Sequence of MAO-B (P27338 whole entry): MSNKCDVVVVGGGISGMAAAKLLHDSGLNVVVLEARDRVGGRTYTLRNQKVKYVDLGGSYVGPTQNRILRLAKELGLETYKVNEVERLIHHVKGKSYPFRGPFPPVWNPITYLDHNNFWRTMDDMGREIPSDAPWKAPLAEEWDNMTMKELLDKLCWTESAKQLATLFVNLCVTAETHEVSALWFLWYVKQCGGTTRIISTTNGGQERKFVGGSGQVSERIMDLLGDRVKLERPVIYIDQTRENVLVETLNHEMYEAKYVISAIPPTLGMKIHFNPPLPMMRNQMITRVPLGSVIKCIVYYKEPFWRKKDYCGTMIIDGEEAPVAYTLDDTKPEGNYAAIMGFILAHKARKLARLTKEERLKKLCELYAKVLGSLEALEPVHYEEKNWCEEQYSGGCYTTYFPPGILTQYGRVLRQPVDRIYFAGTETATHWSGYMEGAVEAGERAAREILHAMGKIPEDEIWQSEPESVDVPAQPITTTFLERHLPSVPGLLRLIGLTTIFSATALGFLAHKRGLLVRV

Row | Structure (SMILES) | Ki (MAO-A) [µM] | Ki (MAO-B) [µM] | Ki [1] [µM] | ability to inhibit LSD1 [1] | LSD1 percent at fixed concentration [1] [% at 20] | IC50 value for MAO-A (MAO-A)
1 | O=C(CN[C@H]1C[C@@H]1c1ccccc1)Nc1ccc(F)cc1 (relative stereo) [Example 8, N-(4-fluorophenyl)-2-{[(trans)-2-phenylcyclopropyl]amino}acetamide] | > 50 | > 50 | > 50 | did not inhibit LSD1 |  | 
2 | CN(C)CCNC(=O)CN[C@H]1C[C@@H]1c1ccccc1 (relative stereo) [Example 13, N-(2-(dimethylamino)ethyl)-2-((trans)-2-phenylcyclopropylamino)acetamide] | > 40 | > 40 |  |  |  | 
3 | CN(CC(=O)NC1CC1)[C@H]1C[C@@H]1c1ccccc1 (relative stereo) [Example 19, N-cyclopropyl-2-{methyl[(trans)-2-phenylcyclopropyl]amino}acetamide] | 74 | > 100 |  |  | 34 | 
4 | CN(CC(N)=O)[C@H]1C[C@@H]1c1ccccc1 (relative stereo) [Example 20, 2-{methyl[(trans)-2-phenylcyclopropyl]amino}acetamide] | > 100 | > 100 |  |  | 40 | 
5 | CC(C)(C)NC(=O)CN(Cc1ccccc1)[C@H]1C[C@@H]1c1ccccc1 (relative stereo) [Example 21, 2-(benzyl((trans)-2-phenylcyclopropyl)amino)-N-tert-butylacetamide] |  |  | > 100 | did not inhibit LSD1 |  | 
6 | CN1CCN(C(=O)CN[C@H]2C[C@@H]2c2ccc(OCc3ccccc3)cc2)CC1 (relative stereo) [Example 26, 2-((trans)-2-(4-(benzyloxy)phenyl)cyclopropylamino)-1-(4-methylpiperazin-1-yl)ethanone] | 11 |  |  |  |  | low micromolar range
